Target: T1, Hormone-sensitive lipase (HSL) (Homo sapiens, UniProt Q05469)
T1 sequence (Q05469 1-1076): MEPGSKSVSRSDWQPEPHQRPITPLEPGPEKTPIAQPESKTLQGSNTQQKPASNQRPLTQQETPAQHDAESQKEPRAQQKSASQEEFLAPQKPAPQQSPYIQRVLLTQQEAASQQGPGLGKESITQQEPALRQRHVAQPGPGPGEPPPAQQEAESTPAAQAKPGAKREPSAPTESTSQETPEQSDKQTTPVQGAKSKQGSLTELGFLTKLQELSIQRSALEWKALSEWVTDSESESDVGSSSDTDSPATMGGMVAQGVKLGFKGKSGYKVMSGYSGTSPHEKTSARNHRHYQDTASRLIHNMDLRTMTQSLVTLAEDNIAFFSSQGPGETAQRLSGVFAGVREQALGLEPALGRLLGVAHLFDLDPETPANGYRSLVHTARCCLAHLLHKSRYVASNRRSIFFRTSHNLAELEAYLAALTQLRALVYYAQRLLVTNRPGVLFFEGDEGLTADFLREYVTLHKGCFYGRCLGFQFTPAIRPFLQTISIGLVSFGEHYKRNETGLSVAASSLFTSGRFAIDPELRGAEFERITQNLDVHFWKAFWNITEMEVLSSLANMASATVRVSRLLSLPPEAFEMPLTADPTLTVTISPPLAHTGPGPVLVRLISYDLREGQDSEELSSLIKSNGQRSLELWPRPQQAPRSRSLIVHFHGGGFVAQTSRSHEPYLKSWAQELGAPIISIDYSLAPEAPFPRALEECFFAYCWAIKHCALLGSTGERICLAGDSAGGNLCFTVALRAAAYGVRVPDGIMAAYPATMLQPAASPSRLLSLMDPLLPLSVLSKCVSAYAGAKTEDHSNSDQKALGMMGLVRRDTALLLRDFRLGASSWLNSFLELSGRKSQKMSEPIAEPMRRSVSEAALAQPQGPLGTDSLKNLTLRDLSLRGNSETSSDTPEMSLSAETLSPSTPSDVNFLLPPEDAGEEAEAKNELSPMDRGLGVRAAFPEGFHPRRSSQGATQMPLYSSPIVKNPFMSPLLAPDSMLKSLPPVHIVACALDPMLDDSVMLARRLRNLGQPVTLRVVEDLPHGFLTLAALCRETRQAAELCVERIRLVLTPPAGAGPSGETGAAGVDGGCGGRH
Assay: selectivity: hormone-sensitive lipase assay
Type: biochemical
Conditions: 50 µM
Method: Hormone-sensitive lipase (HSL) and lipoprotein lipase (LPL) were measured using a radiolabeled triolein droplet emulsion as described in "Vertesy et al., (2002) Journal Antibiotics 55:480-494". Pancreatic lipase (PL) was determined by incubation of 0.25 mmol tributyrin in 2 ml of 5 mM Tris/HCl (pH 6.5), 6 mM sodium taurodeoxycholate, 150 mM NaCl, 1 mM CaCl2 with porcine PL and colipase in the same buffer using a recording pH stat (stirring at 1000 rpm at 25°C) with the pH adjusted to 6.5. PC-PLC was assayed by incubation of 0.2 ml of 10 mM dipalmitoyllecithin, 0.1 ml of 10 mM SDC and 0.1 ml of 0.03 M CaCl2 with bacterial PC-PLC (in 50 mM Tris/HCl, pH 7.5, 0.1 % BSA) for 10 min at 37°C. The reaction was terminated by addition of 0.1 ml of 50 % TCA and subsequently of 2.5 ml of […]. After centrifugation (1500xg, 15 min), 0.2-ml portions of the upper methanol/water phase (~ 1.33 ml) was removed, supplemented with 0.5 ml of 60 % HClO4, then heated at 170°C for 1 h and finally analyzed for inorganic phosphate. Mammalian PI-PLC was measured by incubation of 0.1 ml of 10 mM PI, 0.1 ml of 0.8 % sodium deoxycholate, 0.1 % BSA, 0.2 ml of 100 mM sodium borate (pH 7.5) and rat liver PI-PLC for 20 min at 37°C. The reaction was terminated and further processed as described for the PC-PLC. […] Radioactive phosphatidic acid was detected by phosphorimaging. […]

`CCCCCCCCCCCCP1(=O)O[C@@H]2[C@H](O)[C@@H](O)[C@H](O)[C@@H](O)[C@@H]2O1` (mixture of isomers) [GPI-2350, myo-inositol-1,2-cyclo-dodecylphosphonic acid] was tested, and the “effect on lipase activity” value was “not significantly affected”.
